# US11986471B2, “Compounds and methods of use” (Tango Therapeutics, Inc., priority 2018, dated 2024)
# What was measured:
# [1] = biological target: T1, PRMT5 (Homo sapiens, UniProt O14744); test: PRMT5 IC50 assay in the presence of SAM as cofactor; assay type: biochemical
# T1 construct: purchased Viva (custom protein)
# How it was run: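 Three cofactor conditions are run: SAM-bound, MTA-bound and cofactor-free enzyme. IC50 is read from each; for the SAM and MTA arms it is divided by 1.5 and 13.5 respectively to give Ki.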
# [2] = biological target: T1, PRMT5; test: PRMT5 IC50 assay with no cofactor; assay type: biochemical
# How it was run: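 IC50 values were measured against human PRMT5 with SAM, with MTA, or with no cofactor. Ki was derived from IC50 as Ki=IC50/1.5 with SAM and Ki=IC50/13.5 with MTA, and the Ki(SAM)/Ki(MTA) ratio was then taken.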
# [3] = biological target: T1, PRMT5; test: PRMT5 IC50 assay in the presence of MTA as cofactor; assay type: biochemical; conditions: for IC50: PRMT5, MTA as cofactor
# How it was run: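 Potency against PRMT5 is compared across cofactor states, where IC50 equals Ki×1.5 with SAM present and Ki×13.5 with MTA present.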
# [4] = test system: HAP1 MTAP-intact; test: SDMA in-cell western assay, HAP1 MTAP-intact cell line; assay type: cell-based; conditions: Homo sapiens
# How it was run: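 IC50 values come from SDMA in-cell western staining of HAP1 cells. The MTAP-intact line carries endogenous MTAP, while its MTAP-deleted counterpart lacks MTAP entirely. A selectivity ratio of at least 3 fold marks a compound as MTAP-selective.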
# [5] = test system: HAP1 MTAP-deleted; test: SDMA in-cell western assay, HAP1 MTAP-deleted cell line; assay type: cell-based; conditions: for IC50: Homo sapiens, HAP1 MTAP-deleted cell line; for MTAP Intact/Deleted Ratio: IC50 ratio HAP1 MTAP-intact / HAP1 MTAP-deleted
# How it was run: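 Readout is cellular SDMA signal by in-cell western, with IC50 values derived from it. The cells are MTAP-null HAP1, matched to an isogenic MTAP-intact HAP1 line.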
# [6] = ratio between the Ki in the presence of SAM and the Ki in the presence of MTA
# [7] = ratio between Ki in the presence of SAM and Ki in the presence of MTA
# T1 sequence (O14744 whole entry): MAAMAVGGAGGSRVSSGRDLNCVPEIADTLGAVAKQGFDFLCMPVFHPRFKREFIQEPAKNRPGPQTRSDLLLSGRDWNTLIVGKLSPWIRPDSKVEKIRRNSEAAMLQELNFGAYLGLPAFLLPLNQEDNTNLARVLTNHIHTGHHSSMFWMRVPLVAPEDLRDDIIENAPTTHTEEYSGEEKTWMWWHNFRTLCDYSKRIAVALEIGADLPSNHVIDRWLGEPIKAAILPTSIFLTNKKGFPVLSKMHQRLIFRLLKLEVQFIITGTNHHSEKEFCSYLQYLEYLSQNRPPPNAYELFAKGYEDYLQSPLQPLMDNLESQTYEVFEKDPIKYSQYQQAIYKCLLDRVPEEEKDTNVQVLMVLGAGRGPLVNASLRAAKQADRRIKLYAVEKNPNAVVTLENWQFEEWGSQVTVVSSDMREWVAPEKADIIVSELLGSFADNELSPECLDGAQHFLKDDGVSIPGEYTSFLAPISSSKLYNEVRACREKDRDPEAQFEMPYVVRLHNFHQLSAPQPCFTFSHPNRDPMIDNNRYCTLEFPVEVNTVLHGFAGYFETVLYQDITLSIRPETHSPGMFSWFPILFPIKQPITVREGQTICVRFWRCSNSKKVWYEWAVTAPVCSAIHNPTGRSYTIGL
# T1 sequence (Q9BQA1 whole entry partner): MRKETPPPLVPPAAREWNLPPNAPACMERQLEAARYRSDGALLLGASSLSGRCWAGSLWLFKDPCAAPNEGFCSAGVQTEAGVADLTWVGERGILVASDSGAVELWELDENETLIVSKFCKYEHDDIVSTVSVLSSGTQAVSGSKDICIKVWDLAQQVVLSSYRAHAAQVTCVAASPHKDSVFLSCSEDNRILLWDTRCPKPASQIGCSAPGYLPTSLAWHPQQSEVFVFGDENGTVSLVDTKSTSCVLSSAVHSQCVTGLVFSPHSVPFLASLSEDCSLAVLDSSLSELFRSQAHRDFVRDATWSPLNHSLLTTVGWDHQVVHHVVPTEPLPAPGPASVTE
SMILES,IC50 [1],IC50 [2],IC50 [3],"SAM/MTA Ratio [3, 6]",IC50 [4],IC50 [5],MTAP Intact/Deleted Ratio [5],IC50 ([2]; read-out: No Co-factor IC50),"SAM/MTA Ratio [3, 7]"
"O=C(NC[C@H](O)CN1CCc2cc(OCc3cnco3)ccc2C1)c1ccnc(NC2CCN(C(=O)C3CCC3)CC2)c1 [Compound 433, 2-[[1-(cyclobutanecarbonyl)-4-piperidyl]amino]-N-[(2S)-2-hydroxy-3-[6-(oxazol-5-ylmethoxy)-3N-dihydro-1H-isoquinolin-2-yl]propyl]pyridine-4-carboxamide]",50 to 500 nM,500 to 5000 nM,50 to 500 nM,A (a Ki ratio greater than or equal to 10 fold between the Ki in the presence of SAM and the Ki in the presence of MTA),1000 to 10000 nM,< 1000 nM,B* (an IC50 ratio greater than or equal to 3 fold but lower than 10 fold between the IC50 in the HAP1 MTAP-intact cell line and the HAP1 MTAP-deleted cell line),–,–
"O=C(NC[C@H](O)CN1CCc2cc(OCc3cnco3)ccc2C1)c1ccnc(NC2CCN(C(=O)C3CC3)CC2)c1 [Compound 450, 2-[[1-(cyclopropanecarbonyl)-4-piperidyl]amino]-N-[(2S)-2-hydroxy-3-[6-(oxazol-5-ylmethoxy)-3,4-dihydro-1H-isoquinolin-2-yl]propyl]pyridine-4-carboxamide]",50 to 500 nM,500 to 5000 nM,50 to 500 nM,A (a Ki ratio greater than or equal to 10 fold between the Ki in the presence of SAM and the Ki in the presence of MTA),≥ 10000 nM,< 1000 nM,A* (an IC50 ratio greater than or equal to 10 fold between the IC50 in the HAP1 MTAP-intact cell line and the HAP1 MTAP-deleted cell line),–,–
"CC(C)C(=O)N1CCN(c2cc(C(=O)NC[C@H](O)CN3CCc4cc(OCc5cnco5)ccc4C3)cc(NC3CCC3)n2)CC1 [Compound 481, (S)-2-(cyclobutylamino)-N-(2-hydroxy-3-(6-(oxazol-5-ylmethoxy)-3,4-dihydroisoquinolin-2(1H)-yl)propyl)-6-(4-isobutyrylpiperazin-1-yl)isonicotinamide]",50 to 500 nM,500 to 5000 nM,50 to 500 nM,A (a Ki ratio greater than or equal to 10 fold between the Ki in the presence of SAM and the Ki in the presence of MTA),< 1000 nM,< 1000 nM,C* (an IC50 ratio of less than 3 fold between the IC50 in the HAP1 MTAP-intact cell line and the HAP1 MTAP-deleted cell line),–,–
CCCN(C)c1cc(C(=O)NC[C@H](O)CN2CCc3cc(OCc4cnco4)ccc3C2)cc(NC2CCC2)n1 [Compound 415],50 to 500 nM,–,50 to 500 nM,–,1000 to 10000 nM,< 1000 nM,C* (an IC50 ratio of less than 3 fold between the IC50 in the HAP1 MTAP-intact cell line and the HAP1 MTAP-deleted cell line),500 to 5000 nM,A (a Ki ratio greater than or equal to 10 fold between the Ki in the presence of SAM and the Ki in the presence of MTA)
"CC(=O)N1CC(Nc2cc(C(=O)NC[C@H](O)CN3CCc4c(ccc(OCc5cnco5)c4C)C3)ccn2)C1 [Compound 512, (S)-2-((1-acetylazetidin-3-yl)amino)-N-(2-hydroxy-3-(5-methyl-6-(oxazol-5-ylmethoxy)-3,4-dihydroisoquinolin-2(1H)-yl)propyl)isonicotinamide]",50 to 500 nM,≥ 5000 nM,50 to 500 nM,A (a Ki ratio greater than or equal to 10 fold between the Ki in the presence of SAM and the Ki in the presence of MTA),≥ 10000 nM,≥ 10000 nM,C* (an IC50 ratio of less than 3 fold between the IC50 in the HAP1 MTAP-intact cell line and the HAP1 MTAP-deleted cell line),–,–
COCCN(C)c1cc(C(=O)NC[C@H](O)CN2CCc3c(ccc(OCc4cnco4)c3Cl)C2)cc(NC2CCC2)n1 [Compound 345],50 to 500 nM,–,50 to 500 nM,–,≥ 10000 nM,1000 to 10000 nM,B* (an IC50 ratio greater than or equal to 3 fold but lower than 10 fold between the IC50 in the HAP1 MTAP-intact cell line and the HAP1 MTAP-deleted cell line),≥ 5000 nM,A (a Ki ratio greater than or equal to 10 fold between the Ki in the presence of SAM and the Ki in the presence of MTA)
"CC(=O)N1CCC(Nc2cncc(C(=O)NC[C@H](O)CN3CCc4c(ccc(OCc5cnco5)c4C)C3)c2)CC1 [Compound 606, 5-[(1-acetylpiperidin-4-yl)amino]-N-[(2S)-2-hydroxy-3-{5-methyl-6-[(1,3-oxazol-5-yl)methoxy]-1,2,3,4-tetrahydroisoquinolin-2-yl}propyl]pyridine-3-carboxamide]",50 to 500 nM,500 to 5000 nM,50 to 500 nM,A (a Ki ratio greater than or equal to 10 fold between the Ki in the presence of SAM and the Ki in the presence of MTA),≥ 10000 nM,1000 to 10000 nM,C* (an IC50 ratio of less than 3 fold between the IC50 in the HAP1 MTAP-intact cell line and the HAP1 MTAP-deleted cell line),–,–
"Cc1c(OCc2ccnn2C)ccc2c1CCN(C[C@@H](O)CNC(=O)c1ccnc(NC3CCCCC3)c1)C2 [Compound 278, (S)-2-(cyclohexylamino)-N-(2-hydroxy-3-(5-methyl-6-((1-methyl-1H-pyrazol-5-yl)methoxy)-3N-dihydroisoquinolin-2(1H)-yl)propyl)isonicotinamide]",500 to 5000 nM,–,500 to 5000 nM,–,≥ 10000 nM,≥ 10000 nM,C* (an IC50 ratio of less than 3 fold between the IC50 in the HAP1 MTAP-intact cell line and the HAP1 MTAP-deleted cell line),≥ 5000 nM,A (a Ki ratio greater than or equal to 10 fold between the Ki in the presence of SAM and the Ki in the presence of MTA)
"CC(=O)N1CCN(c2cc(C(=O)NC[C@H](O)CN3CCc4cc(OCc5ocnc5C)c(F)cc4C3)cc(NC3CCC3)n2)CC1 [Compound 615, 2-(4-acetylpiperazin-1-yl)-6-(cyclobutylamino)-N-[(2S)-3-[7-fluoro-6-[(4-methyloxazol-5-yl)methoxy]-3,4-dihydro-1H-isoquinolin-2-yl]-2-hydroxy-propyl]pyridine-4-carboxamide]",50 to 500 nM,500 to 5000 nM,50 to 500 nM,A (a Ki ratio greater than or equal to 10 fold between the Ki in the presence of SAM and the Ki in the presence of MTA),1000 to 10000 nM,< 1000 nM,A* (an IC50 ratio greater than or equal to 10 fold between the IC50 in the HAP1 MTAP-intact cell line and the HAP1 MTAP-deleted cell line),–,–
"Cc1ncoc1COc1ccc2c(c1)CCN(C[C@@H](O)CNC(=O)c1cc(NC3COC3)nc(N3CCCCC3)n1)C2 [Compound 405, N-[(2S)-2-hydroxy-3-{6-[(4-methyl-1,3-oxazol-5-yl)methoxy]-1,2,3,4-tetrahydroisoquinolin-2-yl}propyl]-6-[(oxetan-3-yl)amino]-2-(piperidin-1-yl)pyrimidine-4-carboxamide]",50 to 500 nM,–,50 to 500 nM,–,< 1000 nM,< 1000 nM,B* (an IC50 ratio greater than or equal to 3 fold but lower than 10 fold between the IC50 in the HAP1 MTAP-intact cell line and the HAP1 MTAP-deleted cell line),500 to 5000 nM,A (a Ki ratio greater than or equal to 10 fold between the Ki in the presence of SAM and the Ki in the presence of MTA)
"CC(=O)N1CCN(c2cc(C(=O)NC[C@H](O)CN3CCc4c(ccc(OCc5ocnc5C)c4C)C3)cc(NC3CCC3)n2)CC1 [Compound 502, 2-(4-acetylpiperazin-1-yl)-6-(cyclobutylamino)-N-[(2S)-2-hydroxy-3-{5-methyl-6-[(4-methyl-1,3-oxazol-5-yl)methoxy]-1,2,3,4-tetrahydroisoquinolin-2-yl}propyl]pyridine-4-carboxamide]",50 to 500 nM,500 to 5000 nM,50 to 500 nM,A (a Ki ratio greater than or equal to 10 fold between the Ki in the presence of SAM and the Ki in the presence of MTA),1000 to 10000 nM,< 1000 nM,A* (an IC50 ratio greater than or equal to 10 fold between the IC50 in the HAP1 MTAP-intact cell line and the HAP1 MTAP-deleted cell line),–,–
"Cc1c(OCc2cnco2)ccc2c1CCN(C[C@@H](O)CNC(=O)c1cc(NC3CCCCC3)ncn1)C2 [Compound 436, 6-(cyclohexylamino)-N-[(2S)-2-hydroxy-3-{5-methyl-6-[(1,3-oxazol-5-yl)methoxy]-1,2,3,4-tetrahydroisoquinolin-2-yl}propyl]pyrimidine-4-carboxamide]",500 to 5000 nM,≥ 5000 nM,500 to 5000 nM,A (a Ki ratio greater than or equal to 10 fold between the Ki in the presence of SAM and the Ki in the presence of MTA),≥ 10000 nM,≥ 10000 nM,C* (an IC50 ratio of less than 3 fold between the IC50 in the HAP1 MTAP-intact cell line and the HAP1 MTAP-deleted cell line),–,–
